Measured values reported in US20250084091A1, “INHIBITORS OF SARS-COV-2” (The Texas A&M University System, priority 2021, published 2025).
Values after ≈ are worked out from the molar mass of the structure shown.

Assays:
[1] = biological target: SARS-CoV-2 main protease (Mpro) (Severe acute respiratory syndrome coronavirus 2, UniProt P0DTD1); test: biochemical; conditions: Table 2; read-out: Enzyme IC50
[2] = tested on: SARS-CoV-2 (strain USA-WA1/2020); test: microbe, parasite or virus in culture; type: cell-based; conditions: Severe acute respiratory syndrome coronavirus 2; Table 2; SARS-CoV-2 infected HeLa-ACE2 cells; read-out: CoV-2 HeLa EC50
HeLa-ACE2 cells = test: cells; type: cell-based; conditions: Table 2, total cell count in infected plates
[3] = Uninfected host cell cytotoxicity counter screen; type: cell-based; conditions: human
Outline: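 HeLa-ACE2 cells, uninfected, seeded at 400 cells/well with compounds and held 24 hours at 37° C., 5% CO2. Dead cells stained with Image-iT DEAD green, fixed in 4% paraformaldehyde, DAPI-counterstained and imaged. Data normalized to DMSO and 40 μM puromycin controls; concentration responses in triplicate.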

CoV-2 in Vero cells = test: CoV-2 Vero antiviral assay; type: cell-based, SARS-CoV-2; conditions: Severe acute respiratory syndrome coronavirus 2, Vero, read-out: CoV-2 Vero EC50/100

Row | Compound | IC50 [1] | EC50 [2] | EC50 (HeLa-ACE2 cells) | CC50 at 24 h [3] | EC50 (CoV-2 in Vero cells)
1 | Cc1cncc(C(=O)N2CCC(C(c3ccccc3)c3ccccc3)CC2)c1 [NZ-786, 3-[4-(diphenylmethyl)piperidine-1-carbonyl]-5-methylpyridine] | 0.17 µM | 0.57 µM | > 9.61 µM | 28.5 µM | 10 µg/mL (≈ 27 µM)
2 | Cc1cncc(C(=O)N2CCC(=C3c4ccccc4C=Cc4ccccc43)CC2)c1 [NZ-793, (5-methyl-3-pyridyl)-[4-(2-tricyclo[9.4.0.03,8]pentadeca-1(11),3(8),4,6,9,12,14-heptaenylidene)-1-piperidyl]methanone] | 0.12 µM | 0.527 µM | 0.52 µM | 33.1 µM | 5 µg/mL (≈ 12.7 µM)
3 | Cc1cncc(C(=O)N2CCC(=C3c4ccccc4CSc4ccccc43)CC2)c1 [NZ-794, [4-(6H-benzo[c][1]benzothiepin-11-ylidene)-1-piperidyl]-(5-methyl-3-pyridyl)methanone] | 0.06 µM | 0.155 µM | 0.345 µM | 39.2 µM | 2.5 µg/mL (≈ 6.06 µM)
4 | O=C(c1cncc(Br)c1)N1CCN(C2c3ccccc3CCc3ccccc32)CC1 [ZS-316, (5-bromo-3-pyridyl)-[4-(2-tricyclo[9.4.0.03,8]pentadeca-1(11),3(8),4,6,12,14-hexaenyl)piperazin-1-yl]methanone] | 0.14 µM | 0.7 µM | > 9.61 µM | > 39.8 µM | 2.5 µg/mL (≈ 5.41 µM)
5 | COc1cncc(C(=O)N2CCN(C3c4ccccc4CCc4ccccc43)CC2)c1 [ZS-319, (5-methoxy-3-pyridyl)-[4-(2-tricyclo[9.4.0.03,8]pentadeca-1(11),3(8),4,6,12,14-hexaenyl)piperazin-1-yl]methanone] | 0.21 µM | 0.92 µM | > 9.61 µM | 32.1 µM | 
6 | O=C(c1cc[nH]c(=O)c1)N1CCN(C2c3ccccc3CCc3ccccc32)CC1 [ZS-320, 4-[4-(2-tricyclo[9.4.0.03,8]pentadeca-1(11),3(8),4,6,12,14-hexaenyl)piperazine-1-carbonyl]-1H-pyridin-2-one] | 1.18 µM | 2.53 µM | > 9.61 µM | > 39.8 µM | 
7 | O=C1CC(C(=O)N2CCN(C3c4ccccc4CCc4ccccc43)CC2)c2ccccc2N1 (centres unmarked) [ZS-324, 4-[4-(2-tricyclo[9.4.0.03,8]pentadeca-1(11),3(8),4,6,12,14-hexaenyl)piperazine-1-carbonyl]-3,4-dihydro-1H-quinolin-2-one] | 0.54 µM | 2.79 µM | > 9.61 µM | 21.1 µM | 
8 | O=C1CC(C(=O)N2CCN(C(c3ccccc3)c3ccccc3)CC2)c2ccccc2N1 (centres unmarked) [ZS-325, 4-(4-benzhydrylpiperazine-1-carbonyl)-3,4-dihydro-1H-quinolin-2-one] | 1.51 µM | 5.68 µM | > 9.61 µM | > 39.8 µM | 
9 | Cc1cncc(C(=O)N2CCN(C3c4ccccc4CCc4ccccc43)CC2)c1 [ZS-329, (5-methyl-3-pyridyl)-[4-(2-tricyclo[9.4.0.03,8]pentadeca-1(11),3(8),4,6,12,14-hexaenyl)piperazin-1-yl]methanone] | 0.089 µM | 0.33 µM | > 9.61 µM | 21.3 µM | 5 µg/mL (≈ 12.6 µM)
10 | Cc1cncc(C(=O)N2CCC(=C3c4ccccc4CCc4ccccc43)CC2)c1 [ZS-336, (5-methyl-3-pyridyl)-[4-(2-tricyclo[9.4.0.03,8]pentadeca-1(11),3(8),4,6,12,14-hexaenylidene)-1-piperidyl]methanone] | 0.054 µM | 0.252 µM | 0.314 µM | 31.5 µM | 2.5 µg/mL (≈ 6.34 µM)
11 | COC(=O)c1cncc(C(=O)N2CCN(C3c4ccccc4CCc4ccccc43)CC2)c1 [ZS-338, methyl 5-[4-(2-tricyclo[9.4.0.03,8]pentadeca-1(11),3(8),4,6,12,14-hexaenyl)piperazine-1-carbonyl]pyridine-3-carboxylate] | > 1 µM | 7.07 µM | > 9.61 µM | > 39.8 µM | 
12 | O=C(c1cncc([N+](=O)[O-])c1)N1CCN(C2c3ccccc3CCc3ccccc32)CC1 [ZS-339, (5-nitro-3-pyridyl)-[4-(2-tricyclo[9.4.0.03,8]pentadeca-1(11),3(8),4,6,12,14-hexaenyl)piperazin-1-yl]methanone] | 1.15 µM | 4.06 µM | > 9.61 µM | > 39.8 µM | 
13 | Cc1c(Br)cncc1C(=O)N1CCN(C2c3ccccc3CCc3ccccc32)CC1 [ZS-346, (5-bromo-4-methyl-3-pyridyl)-[4-(2-tricyclo[9.4.0.03,8]pentadeca-1(11),3(8),4,6,12,14-hexaenyl)piperazin-1-yl]methanone] | 0.27 µM | 1.07 µM | 2.04 µM | > 39.8 µM | 
14 | NC(=O)c1cncc(C(=O)N2CCN(C3c4ccccc4CCc4ccccc43)CC2)c1 [ZS-347, 5-[4-(2-tricyclo[9.4.0.03,8]pentadeca-1(11),3(8),4,6,12,14-hexaenyl)piperazine-1-carbonyl]pyridine-3-carboxamide] | 1.7 µM | 4.25 µM | > 9.61 µM | > 39.8 µM | 
